Laboratory results as given in PubChem BioAssay (NCI).
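A five-concentration, 48-hour dose response in 96-well plates underlies each endpoint, interpolated linearly between surrounding concentrations. The concentration for 50% growth inhibition is given as GI50. TGI is the concentration that stops growth completely.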

Legend:
Test in all cases: NCI-60 cell line screen, 48 h
[1] = system: RXF 393 renal
[2] = system: TK-10 renal
[3] = system: UO-31 renal
[4] = system: HOP-62 NSCLC
[5] = system: A549 NSCLC
[6] = system: HCT-15 colon
[7] = system: UACC-62 melanoma
[8] = system: SK-MEL-2 melanoma
[9] = system: A498 renal
[10] = system: NCI/ADR-RES ovarian
[11] = system: EKVX NSCLC
[12] = system: CAKI-1 renal
[13] = system: DU-145 prostate
[14] = system: HOP-92 NSCLC
[15] = system: MOLT-4 leukemia
[16] = system: MCF7 breast
[17] = system: PC-3 prostate
[18] = system: SF-295 CNS
[19] = system: SK-MEL-28 melanoma
[20] = system: HS 578T breast
[21] = system: KM12 colon
[22] = system: U251 CNS
[23] = system: T-47D breast
[24] = system: COLO 205 colon
[25] = system: OVCAR-3 ovarian
[26] = system: HL-60(TB) leukemia
[27] = system: NCI-H226 lung
[28] = system: HCT-116 colon

SMILES: COC(=O)c1cccc(NC2=C(Cl)C(=O)c3nc(C)ccc3C2=O)c1
- TGI [1]: 2.94 µM
- GI50 [2]: 1.78 µM
- TGI [2]: 3.19 µM
- GI50 [3]: 1.44 µM
- TGI [3]: 2.79 µM
- GI50 [4]: 15.1 µM
- TGI [4]: 29.6 µM
- GI50 [5]: 18.1 µM
- TGI [5]: 37.9 µM
- GI50 [6]: 1.54 µM
- TGI [6]: 3.33 µM
- GI50 [7]: 2.62 µM
- TGI [7]: 8.1 µM
- GI50 [8]: 2.27 µM
- TGI [8]: 6.48 µM
- GI50 [9]: 12 µM
- TGI [9]: 24.6 µM
- GI50 [10]: 2.25 µM
- TGI [10]: 6.28 µM
- GI50 [11]: 1.77 µM
- TGI [11]: 3.6 µM
- GI50 [12]: 1.71 µM
- TGI [12]: 3.28 µM
- GI50 [13]: 1.86 µM
- TGI [13]: 3.39 µM
- GI50 [14]: 1.92 µM
- TGI [14]: 3.95 µM
- GI50 [15]: 2.53 µM
- TGI [15]: 5.68 µM
- GI50 [16]: 1.89 µM
- TGI [16]: 4.61 µM
- GI50 [17]: 2.8 µM
- TGI [17]: 10.3 µM
- GI50 [18]: 15.8 µM
- TGI [18]: 29.9 µM
- GI50 [19]: 1.96 µM
- TGI [19]: 3.71 µM
- GI50 [20]: 2.46 µM
- TGI [20]: 6.26 µM
- GI50 [21]: 13.3 µM
- TGI [21]: 29.4 µM
- GI50 [22]: 3.27 µM
- TGI [22]: 11.8 µM
- GI50 [23]: 2.04 µM
- TGI [23]: 5.02 µM
- GI50 [24]: 1.77 µM
- TGI [24]: 3.76 µM
- GI50 [25]: 1.59 µM
- TGI [25]: 3.03 µM
- GI50 [26]: 1.53 µM
- TGI [26]: 3.64 µM
- GI50 [27]: 2.02 µM
- TGI [27]: 4.39 µM
- GI50 [28]: 1.6 µM
- TGI [28]: 3.32 µM
